Source: patent publication US10828372B2, “Compositions and methods for the inhibition of fibrosis” (WISCONSIN ALUMNI RESEARCH FOUNDATION, priority 2017, dated 2020)
Entries after “also recorded” stand apart in the source; their conditions may differ. Where no end group is shown, it is not given here.

How the values were obtained:
UUO kidneys = test: Unilateral Ureteral Obstruction (UUO) model of kidney fibrosis; format: in vivo, mouse; settings: for decrease in CD45 staining (leukocyte infiltration) / decrease in collagens (picrosirius red birefringence): UUO kidney sections; for decrease of fibronectin deposition (immunohistochemistry): UUO kidneys, s.c. 0.3 mg per day, day 3 to day 9, vs saline; for qualitative H&E histology of UUO kidneys: compared to saline
Text: Unilateral Ureteral Obstruction model. […] All efforts were made to minimize suffering. […] PEGylated peptide equivalent amounts were based on peptide concentration.
Thus, the right, contralateral, kidney of each mouse was utilized as a control to the left UUO-treated kidney. The data from two cohorts of UUO-treated mice were combined for this study composed of the following groups (n): saline (n=5), PEG (n=4), FUD (n=5), PEG-FUD (n=8) and PEG-mFUD (n=3).
Histology and immunostaining: Paraffin-embedded tissues were sectioned at 4 μm and stained with H&E and Picrosirius Red, and IHC for fibronectin and CD45 for leukocytes. […] Staining for fibronectin was carried out using a rabbit polyclonal antibody to mouse fibronectin (RamFN) which was described in the art. RamFN diluted at 1:5000 required prior proteinase K antigen retrieval and was developed with ImmPRESS Rabbit Ig HRP. Staining for leukocytes was carried out using the pan leukocyte antibody rat anti-mouse CD45 (Leukocyte Common antigen, Ly-5, BD Pharmingen, clone 30-F11) at 1:100 after citrate pH 6.0 antigen retrieval and developed with ImmPRESS rat Ig HRP. RamFN and CD45 staining was counter stained with hematoxylin to demarcate nuclei.
Stained tissue sections were imaged using the 20× objective on an upright brightfield Nikon Eclipse 600 microscope. This microscope was also equipped with polarizer capabilities utilized to assess the birefringence of the picrosirius red-stained collagen fibers. Quantitation of birefringence or DAB product following development of HRP stains was carried out using Image J (Sun Microsystems.Ink) from 6 images from each mouse section obtained at random within the central cortical area and excluding large blood vessels and the kidney capsule.

[1] = test system: EDA-containing fibronectin; test: Endogenous (cellular) fibronectin assembly assay, human proximal tubular epithelial cells (HK-2); format: cell-based; settings: doses up to 500 nM; for IC50: endogenous EDA+-fibronectin, human proximal tubular epithelial cells, read-out: IC50 of fibronectin assembly inhibition
Sequence of EDA-containing fibronectin (P02751 32-608 limits assumed): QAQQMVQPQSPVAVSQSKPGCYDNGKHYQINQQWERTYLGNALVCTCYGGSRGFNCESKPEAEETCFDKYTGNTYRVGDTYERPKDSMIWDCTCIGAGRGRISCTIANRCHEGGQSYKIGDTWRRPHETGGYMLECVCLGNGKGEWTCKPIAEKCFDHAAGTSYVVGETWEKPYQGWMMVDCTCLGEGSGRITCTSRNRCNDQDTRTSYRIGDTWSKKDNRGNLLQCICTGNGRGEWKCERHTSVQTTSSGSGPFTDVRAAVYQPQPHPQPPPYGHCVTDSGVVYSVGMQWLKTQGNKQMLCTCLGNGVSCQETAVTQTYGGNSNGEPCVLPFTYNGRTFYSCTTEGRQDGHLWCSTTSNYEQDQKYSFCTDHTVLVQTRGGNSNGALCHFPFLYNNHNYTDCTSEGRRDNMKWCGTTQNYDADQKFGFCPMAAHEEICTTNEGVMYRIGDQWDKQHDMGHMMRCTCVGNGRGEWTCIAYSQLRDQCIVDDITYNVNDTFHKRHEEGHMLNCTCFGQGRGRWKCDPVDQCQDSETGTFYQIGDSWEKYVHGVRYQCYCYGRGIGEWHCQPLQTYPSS
Text: Endogenous (cellular) fibronectin assembly assay: This immunochemical assay measures the ECM incorporation of EDA-containing fibronectin synthesized by human fibroblasts and human proximal tubular epithelial cells. Human proximal epithelial cells, HK-2 cells, were obtained from ATCC (CRL-2190). The EDA+ fibronectin is a splice variant synthesized and secreted by a variety of cells mostly during embryonic development and during wound healing, ECM remodeling, or fibrotic conditions in the adult. Fibroblasts (AH1F) were cultured in DMEM (Gibco) containing 10% fetal calf serum, and human proximal tubular epithelial cells (HK-2) were cultured in keratinocyte serum free medium (KSFM, containing pituitary extract and rEGF, Invitrogen/Thermo Fisher). Both media also contained 2.5 mM glutamine, 100 IU/ml penicillin, and 100 μg/ml streptomycin. Confluent cells were trypsinized and resuspended in DMEM containing 2% FCS in DMEM for AH1F cells or KSFM for HK-2 cells, at densities that allow delivery of 60,000 AH1F or 20,000 HK-2 cells in 90 μl per well in black-walled, flat transparent bottom 96-well plates. Cells were incubated for 2 h at 37° C. with 5% CO2 and checked microscopically for spreading and confluence. Peptides were then added in 10 μl volumes at 10-fold the desired final concentration. Cell monolayers in microplates were incubated overnight in a humidified 37° C., 5% CO2 chamber. After approximately 22 h, 10 μl of AlamarBlue® was added to the cell monolayers and incubated at 37° C. for 2 h to assess cell viability. Fluorescence of AlamarBlue® was read at 555 nm excitation and 585 nm emission. Microplates were washed twice with HBSS containing Ca^2+, Mg^2+ and 50 μl/well of 4% paraformaldehyde (PFA) in PBS was then added for 10 min at room temperature. […] Similar to the measurement of exogenous A488-FN fluorescence, A488-EDA fluorescence was read using microplate reader equipped with bottom-readout capabilities at 485 nm excitation and 525 nm emission. Fluorescence of wells to which A488-IgG was added, i.e., background green fluorescence from non-specific IgG binding and from the cell monolayer was subtracted from fluorescence values of wells incubated with A488-EDA. Data is presented for fibronectin fibrillogenesis or cell viability as percent of fluorescence values (AlexaFluor® 488 fluorescence or AlamarBlue®, respectively) for wells with no peptides.
To determine whether PEG-FUD retained its ability to inhibit fibronectin fibrillogenesis, PEG-FUD and FUD were compared in cell-based fibronectin matrix assembly assays. The ability of PEG-FUD to inhibit the incorporation of exogenous fibronectin derived from plasma and also of fibronectin endogenously produced by the cultured cells was measured, since fibrosis is likely to contain fibronectin from both sources. […]

| Substance | decrease in CD45 staining (leukocyte infiltration) (UUO kidneys) | decrease in collagens (picrosirius red birefringence) (UUO kidneys) | decrease of fibronectin deposition (immunohistochemistry) (UUO kidneys) | qualitative H&E histology of UUO kidneys (UUO kidneys) | inhibition of fibronectin assembly by proximal tubular epithelial cells [1] | IC50 [1] |
| --- | --- | --- | --- | --- | --- | --- |
| FUD: 49 amino acid FUD peptide, SEQ ID NO: 1, recombinantly expressed, His-tag removed; inhibitor of fibronectin fibrillogenesis (KDQSPLAGESGETEYITEVYGNQQNPVDIDKKLPNETGFSGNMVETEDT; human) [reference compound] | approximately 50% | about 50% | 40% | greater eosinophilic staining | 50% | ~30 nM |
| PEG-FUD: PEGylated FUD prepared as in Example 1, PEG size not stated; approximately 27 kDa by mass spectrometry, likely the 20 kDa conjugate (KDQSPLAGESGETEYITEVYGNQQNPVDIDKKLPNETGFSGNMVETEDT; not fully specified (N-terminus); also: PEG size not given here) | approximately 50% | about 50% | 70% | greater eosinophilic staining; also recorded: clearer tubular preservation and vascularized glomeruli | 50% | ~30 nM |
